{"source": "patent US5504213A", "about": "“Benzofuranyl-and-thiophenyl-alkanecarboxyclic acid derivatives” (Bayer Aktiengesellschaft, priority 1993, dated 1996)", "key": {"[1]": {"tested_on": "FMLP-induced skin oedema of guinea-pigs", "assay": "Effect of orally administered compounds on the FMLP-induced skin oedema of guinea-pigs in vivo", "conditions": "guinea pig, 25 mg/kg", "protocol": "6. Effect of orally administered compounds on the FMLP-induced skin oedema\nof guinea-pigs in vivo-Test's p.o.\nGuinea-pits (600-800 g) were fasted overnight and orally treated with vehicle ([…]; […]) 40 minutes later the animals were anasthetized with pentobarbitone sodium (40 mg/kg; i.p.) and 0.6 ml of a mixture of pontamine sky blue (5% w/v) and ^125 I-HSA (1 μci/animal) was injected (i.V.). 90 minutes after oral pretreatment FMLP (50 μg/site) was injected (i.d.) at 4 different sites, histamine (1 μg/site) and vehicle (100 μl, 1% DMSO v/v in Hanks buffered salt solution) were both injected (i.d.) at 2 different sites.\nThe responses were allowed to develop for 30 minutes before the animal was sacrificed and a blood sample taken.\nSkin sites and plasma samples were counted for 1 minute on a gamma counter. The degree of oedema was calculated as μl plasma/skin site.\nStatistical analysis was carried out by a Mann-Whitney U-test on the mean of the 4 values of μl Plasma obtained for FMLP/animal."}, "PMN cyclic AMP": {"tested_on": "PMN cyclic AMP", "assay": "Measurement of PMN cyclic AMP concentration (human PMN, FMLP-stimulated)", "assay_type": "cell-based", "conditions": "4×10^-8 M FMLP, control 100, expressed as percentage of vehicle control, read-out: % elevation of cAMP at 1 μM (control 100)", "protocol": "1. Preparation of human PMN\nBlood was taken from healthy subjects by venous puncture and neutrophils were purified by dextran sedimentation and resuspended in the buffered medium.\n3. Measurement of PMN cyclic AMP concentration\nThe compounds according to the invention were incubated with 3.7×10^6 PMN for 5 min at 37° C. before addition of 4×10^-8 M FMLP. After 6 min protein was precipitated by the addition of 1% v/v conc. HCl in 96% v/v ethanol containing 0.1 mM EDTA. After centrifugation the ethanolic extracts were evaporated to dryness under N2 and resuspended in 50 mM Tris/HCl pH 7.4 containing 4 mM EDTA. The cyclic AMP concentration in the extracts was determined using a cyclic AMP binding protein assay supplied by Amersham International plc. Cyclic AMP concentrations were expressed as percentage of vehicle containing control incubations."}, "[2]": {"tested_on": "FMLP-induced skin oedama of guinea pigs", "assay": "Effect of intravenously administered compounds on the FMLP-induced skin oedema of guinea pigs", "assay_type": "in vivo", "conditions": "guinea pig, 1 mg/kg", "protocol": "5. Effect of intravenously administered compounds on the FMLP-induced skin oedama of guinea pigs.\nGuinea-pigs (600-800 g) were anaesthetized with pentobarbitone sodium (40 mg/kg, i.p.) and injected (i.V.) with a 0.5 ml mixture of pentamine sky blue (5% W/V) and ^125 I-HSA ([…]). 10 minutes later 3 intradermal injections of FMLP (10 μg/site), 1 injection of histamine (1 μg/site) and 1 injection of vehicle (100 μl of 0.2% DMSO V/V in Hanks Buffered salt solution) were made on the left hand side of the animal (preinjection sites). 5 minutes later the drug (1 ml/kg) or the vehicle (50% PEG 400 V/V in distilled water, 1 ml/kg) was administered (i.V.). 10 minutes later an identical pattern of intradermal injections was made on the opposite flank of the animal (post-injection sites). These responses were allowed to develop for 15 minutes before the animal was sacrificed and a blood sample taken.\nSkin sites and plasma samples were counted for 1 minute on a gamma counter and the degree of oedema calculated as μl plasma/skin site. Statistical analysis was done by a paired t-test on the mean of the 3 pre-injection site values of μl plasma obtained for FMLP/animal. The percentage inhibition of drug or vehicle was calculated as follows [formula]"}}, "data": [{"smiles": "COC(=O)CCc1c(C(=O)c2ccc(Cl)cc2)oc2cc(O)ccc12", "note": "[Example 30]", "values": [{"measurement": "% inhibition (FMLP-induced skin oedema, p.o.)", "setting": "[1]", "value": 46, "unit": "%"}, {"measurement": "activity at 1 µM", "setting": "PMN cyclic AMP", "value": 394, "unit": "%"}, {"measurement": "% inhibition (FMLP-induced skin oedema, i.v.)", "setting": "[2]", "value": 40.0, "unit": "%"}]}]}
